Results taken from PubChem BioAssay AID2060611 (Molecular Pharmacology Branch, DTP, NCI, 2025).
pIC50: −log10 of the molar value.

Test system: 628569-122-R-J1-PDC complex spheroid viability
Assay: Anticancer human tumor 628569-122-R-J1-PDC patient-derived head and neck squamous carcinoma cell line growth inhibition [CLK]
Conditions: for pIC50: curve of first compound; for viability, T/C: stronger effect = lower value
Outline: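 Multi-cell-type spheroids combined patient-derived tumor cells with HUVEC endothelial cells and human mesenchymal stem cells. Paired agents were dosed in half-log steps down from about clinical Cmax, or from 10 microM where Cmax was unknown.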

[1] = second compound 0.0316 µM, first compound 0.0316 µM
[2] = second compound 0.0316 µM, first compound 0.1 µM
[3] = second compound 0.0316 µM, first compound 0.316 µM
[4] = second compound 0.0316 µM, first compound 1 µM
[5] = second compound 0.0316 µM, first compound 3.16 µM
[6] = second compound 0.0316 µM, first compound 10 µM
[7] = second compound 0.1 µM, first compound 0.0316 µM
[8] = second compound 0.1 µM, first compound 0.1 µM
[9] = second compound 0.1 µM, first compound 0.316 µM
[10] = second compound 0.1 µM, first compound 1 µM
[11] = second compound 0.1 µM, first compound 3.16 µM
[12] = second compound 0.1 µM, first compound 10 µM
[13] = second compound 0.316 µM, first compound 0.0316 µM
[14] = second compound 0.316 µM, first compound 0.1 µM
[15] = second compound 0.316 µM, first compound 0.316 µM
[16] = second compound 0.316 µM, first compound 1 µM
[17] = second compound 0.316 µM, first compound 3.16 µM
[18] = second compound 0.316 µM, first compound 10 µM
[19] = second compound 1 µM, first compound 0.0316 µM
[20] = second compound 1 µM, first compound 0.1 µM
[21] = second compound 1 µM, first compound 0.316 µM
[22] = second compound 1 µM, first compound 1 µM
[23] = second compound 1 µM, first compound 3.16 µM
[24] = second compound 1 µM, first compound 10 µM
[25] = second compound 3.16 µM, first compound 0.0316 µM
[26] = second compound 3.16 µM, first compound 0.1 µM
[27] = second compound 3.16 µM, first compound 0.316 µM
[28] = second compound 3.16 µM, first compound 1 µM
[29] = second compound 3.16 µM, first compound 3.16 µM
[30] = second compound 3.16 µM, first compound 10 µM
[31] = second compound 10 µM, first compound 0.0316 µM
[32] = second compound 10 µM, first compound 0.1 µM
[33] = second compound 10 µM, first compound 0.316 µM
[34] = second compound 10 µM, first compound 1 µM
[35] = second compound 10 µM, first compound 3.16 µM
[36] = second compound 10 µM, first compound 10 µM
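Note: spheroids exposed to agents for seven days before readout.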
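Throughout, for viability, T/C: 100% = DMSO vehicle control viability.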

In the case of `CC1COCCN1c1cc(C2(S(C)(=N)=O)CC2)nc(-c2ccnc3[nH]ccc23)n1` (centres undefined) + CN1CCN(c2cc(C(=O)Nc3cc4cc(-c5cnn(C)c5)ccc4cn3)ccn2)CC1, the pIC50 (second compound 0.0316 µM) was 5.58, the pIC50 (second compound 0.1 µM) was 5.85 and the pIC50 (second compound 0.316 µM) was > 7.50. For the same compound, the pIC50 (second compound 1 µM) was > 7.50, the pIC50 (second compound 3.16 µM) was > 7.50 and the pIC50 (second compound 10 µM) was > 7.50. It also gave a viability, T/C [1] of 101%, a viability, T/C [2] of 95.9% and a viability, T/C [3] of 79.1%. For the same compound, the viability, T/C [4] was 60.8%, the viability, T/C [5] was 45.9% and the viability, T/C [6] was 46.1%. It also gave a viability, T/C [7] of 68.2%, a viability, T/C [8] of 75.6% and a viability, T/C [9] of 59%. It also gave a viability, T/C [10] of 53.6%, a viability, T/C [11] of 45.4% and a viability, T/C [12] of 41.2%. It also gave a viability, T/C [13] of 34.3%, a viability, T/C [14] of 41.9% and a viability, T/C [15] of 36%. It also gave a viability, T/C [16] of 38.4%, a viability, T/C [17] of 27.2% and a viability, T/C [18] of 24.7%. It also gave a viability, T/C [19] of 9.71%, a viability, T/C [20] of 9.35% and a viability, T/C [21] of 7.68%. It also gave a viability, T/C [22] of 7.29%, a viability, T/C [23] of 7.44% and a viability, T/C [24] of 10.3%. The viability, T/C [25] was 8.58%, the viability, T/C [26] was 5.23% and the viability, T/C [27] was 6.65%. For the same compound, the viability, T/C [28] was 9.55%, the viability, T/C [29] was 9.82% and the viability, T/C [30] was 9.3%. The viability, T/C [31] was 4.43%, the viability, T/C [32] was 4.71% and the viability, T/C [33] was 5.12%. It also gave a viability, T/C [34] of 4.78%, a viability, T/C [35] of 4.88% and a viability, T/C [36] of 4.15%.
For `CC(=O)O[C@H]1C(=O)[C@@]2(C)[C@H]([C@H](OC(=O)c3ccccc3)[C@]3(O)C[C@H](OC(=O)[C@H](O)[C@@H](NC(=O)c4ccccc4)c4ccccc4)C(C)=C1C3(C)C)[C@]1(OC(C)=O)CO[C@@H]1C[C@@H]2O` + CN1CCN(c2cc(C(=O)Nc3cc4cc(-c5cnn(C)c5)ccc4cn3)ccn2)CC1, the pIC50 (second compound 0.0316 µM) was > 7.50, the pIC50 (second compound 0.1 µM) was > 7.50 and the pIC50 (second compound 0.316 µM) was > 7.50. The pIC50 (second compound 1 µM) was > 7.50, the pIC50 (second compound 3.16 µM) was > 7.50 and the pIC50 (second compound 10 µM) was > 7.50. It also gave a viability, T/C [1] of 39.9%, a viability, T/C [2] of 34.4% and a viability, T/C [3] of 38%. It also gave a viability, T/C [4] of 41%, a viability, T/C [5] of 41.6% and a viability, T/C [6] of 54%. It also gave a viability, T/C [7] of 37.5%, a viability, T/C [8] of 33.4% and a viability, T/C [9] of 39.5%. For the same compound, the viability, T/C [10] was 42.7%, the viability, T/C [11] was 47.2% and the viability, T/C [12] was 67.3%. The viability, T/C [13] was 33.2%, the viability, T/C [14] was 41.9% and the viability, T/C [15] was 41.7%. It also gave a viability, T/C [16] of 41%, a viability, T/C [17] of 33.7% and a viability, T/C [18] of 49.4%. The viability, T/C [19] was 4.9%, the viability, T/C [20] was 5.86% and the viability, T/C [21] was 4.18%. The viability, T/C [22] was 3.31%, the viability, T/C [23] was 3.36% and the viability, T/C [24] was 4.26%. For the same compound, the viability, T/C [25] was 5.69%, the viability, T/C [26] was 4.99% and the viability, T/C [27] was 6.92%. The viability, T/C [28] was 3.95%, the viability, T/C [29] was 5.22% and the viability, T/C [30] was 3.46%. The viability, T/C [31] was 1.88%, the viability, T/C [32] was 4.8% and the viability, T/C [33] was 3.63%. It also gave a viability, T/C [34] of 4.24%, a viability, T/C [35] of 3.42% and a viability, T/C [36] of 1.77%.
